Measurements as given in patent US9492460B2, “Carbazole compounds useful as bromodomain inhibitors” (Bristol-Myers Squibb Company, priority 2013, dated 2016).

Target: T1, bromodomain BRD4 (44-168), BRD4 (333-460), and BRD4 (1-477 or 44-460) (Homo sapiens, UniProt O60885)
T1 construct: BRD4(44-168), BRD4(333-460), BRD4(44-460), BRD4(1-477), O60885-1; fused on or other part: N-terminal BirA biotinylation motif, biotinylated; The TVMV-cleavable His6 tag is removed, except in some BRD4(44-460) runs detected with anti-His terbium cryptate
Experiment: Time Resolved Fluorescence Resonance Energy Transfer (TR-FRET) binding assay
Settings: one of the FRET assays described

SMILES | IC50
Cc1noc(C)c1-c1ccc2c3cc(C(=O)N4CCOCC4)ccc3n(CC3CC3)c2c1 [Example 22, 9-(cyclopropylmethyl)-2-(3,5-dimethyl-4-isoxazolyl)-6-(4-morpholinylcarbonyl)-9H-carbazole] | < 500 nM
Cc1nnn(C)c1-c1cc(C(N)=O)c2c3ccc(C(C)(C)O)cc3n(C(c3ccccc3)C3CCOCC3)c2c1 (single isomer, unassigned) [Example 233, 2-(1,4-Dimethyl-1H-1,2,3-triazol-5-yl)-7-(2-hydroxypropan-2-yl)-9-(phenyl(tetrahydro-2H-pyran-4-yl)methyl)-9H-carbazole-4-carboxamide] | < 50 nM
Cc1noc(C)c1-c1cc(C(N)=O)c2c3cc(N4CCCOC4=O)ccc3n(Cc3ccc(Cl)cc3)c2c1 [Example 157, 9-(4-chlorobenzyl)-2-(3,5-dimethyl-4-isoxazolyl)-6-(2-oxo-1,3-oxazinan-3-yl)-9H-carbazole-4-carboxamide] | < 50 nM
Cc1noc(C)c1-c1cc(C(N)=O)c2c3cc(C(=O)N4CC(O)C4)ccc3n(Cc3ccccc3)c2c1 [Example 53] | < 50 nM
CNC(=O)c1cc(-c2c(C)noc2C)cc2c1c1cc(C(=O)N3CC(F)C3)ccc1n2Cc1ccccn1 [Example 116, 2-(3,5-dimethylisoxazol-4-yl)-6-(3-fluoroazetidine-1-carbonyl)-N-methyl-9-(pyridin-2-ylmethyl)-9H-carbazole-4-carboxamide] | < 50 nM
CNC(=O)c1cc(-c2c(C)noc2C)cc2c1c1cc(C(=O)N3CC(F)C3)ccc1n2C(C)c1ccc(Cl)cc1 (stereo not drawn) [Example 111] | < 50 nM
Cc1noc(C)c1-c1cc(C(N)=O)c2c3cc(NCCF)ccc3n(Cc3ccccc3)c2c1 [Example 136, 9-benzyl-2-(3,5-dimethyl-4-isoxazolyl)-6-(2-fluoroethylamino)-9H-carbazole-4-carboxamide] | < 50 nM
Cc1noc(C)c1-c1cc(C(N)=O)c2c3cc(C(=O)N4CC(F)C4)ccc3n(C(C)c3ccc(Cl)cc3)c2c1 (stereo not drawn) [Example 94, 9-(1-(4-chlorophenyl)ethyl)-2-(3,5-dimethyl-4-isoxazolyl)-6-((3-fluoro-1-azetidinyl)carbonyl)-9H-carbazole-4-carboxamide] | < 50 nM
Cc1noc(C)c1-c1cc(C(N)=O)c2c3cc(C(=O)N4CCO[C@H](C)C4)ccc3n(Cc3ccccc3)c2c1 [Example 62] | < 50 nM
Cc1noc(C)c1-c1cc(C(N)=O)c2c3cc(C(=O)N4CC(C)OC(C)C4)ccc3n(Cc3ccccc3)c2c1 (stereo not drawn) [Example 69] | < 50 nM
Cc1nocc1-c1cc(C(N)=O)c2c3cc(C(=O)N4CCOCC4)ccc3n(Cc3ccc(F)cc3)c2c1 [Example 122, 9-(4-fluorobenzyl)-2-(3-methyl-4-isoxazolyl)-6-(4-morpholinylcarbonyl)-9H-carbazole-4-carboxamide] | < 50 nM
Cc1noc(C)c1-c1cc(C(N)=O)c2c3cc(NCC(F)F)ccc3n(Cc3ccccc3)c2c1 [Example 139, 9-benzyl-6-((2,2-difluoroethyl)amino)-2-(3,5-dimethyl-4-isoxazolyl)-9H-carbazole-4-carboxamide] | < 50 nM
Cc1noc(C)c1-c1cc(C(N)=O)c2c3cc(C(=O)N4CC(F)(F)C4)ccc3n(C(C)c3ccccc3)c2c1 (single isomer, unassigned) [Example 98, 6-((3,3-difluoro-1-azetidinyl)carbonyl)-2-(3,5-dimethyl-4-isoxazolyl)-9-(1-phenylethyl)-9H-carbazole-4-carboxamide] | < 50 nM
Cc1noc(C)c1-c1cc(C(N)=O)c2c3ccc(C(C)(C)O)c(F)c3n(C(c3ccccc3)C3CCC(F)(F)CC3)c2c1 (single isomer, unassigned) [Example 227, 9-[(4,4-difluorocyclohexyl)(phenyl)methyl]-2-(dimethyl-1,2-oxazol-4-yl)-8-fluoro-7-(2-hydroxypropan-2-yl)-9H-carbazole-4-carboxamide] | < 50 nM
Cc1noc(C)c1-c1ccc2c3cc(C(=O)N4C[C@@H](C)O[C@@H](C)C4)ccc3n(C(=O)c3ccccc3)c2c1 [Example 24, 9-benzoyl-2-(3,5-dimethyl-4-isoxazolyl)-6-((cis-2,6-dimethyl-4-morpholinyl)carbonyl)-9H-carbazole] | < 500 nM
COc1ccccc1Cn1c2ccc(C(=O)N3CCC(F)C3)cc2c2c(C(N)=O)cc(-c3c(C)noc3C)cc21 (stereo not drawn) [Example 82] | < 50 nM
Cc1noc(C)c1-c1cc(C(N)=O)c2c3cc(C(=O)N4COCC4(C)C)ccc3n(Cc3ccccc3)c2c1 [Example 77] | < 50 nM
Cc1noc(C)c1-c1cc(C#N)c2c3ccc(C(=O)O)cc3n(Cc3ccccc3)c2c1 [Example 186, 9-Benzyl-5-cyano-7-(3,5-dimethyl-4-isoxazolyl)-9H-carbazole-2-carboxylic acid] | < 50 nM
Cc1cccc(Cn2c3ccc(C(=O)N4CC(C)OC(C)C4)cc3c3ccc(-c4c(C)noc4C)cc32)c1 (stereo not drawn) [Example 20] | < 500 nM
CNC(=O)c1cc(-c2c(C)noc2C)cc2c1c1cc(C(=O)N3CC(F)C3)ccc1n2Cc1cccc(F)c1 [Example 104] | < 50 nM

SMILES | IC50
COc1ccc2c(c1)c1c(C(N)=O)cc(-c3c(C)noc3C)cc1n2C(C)c1ccccc1 (single isomer, unassigned) [Example 179, 2-(3,5-dimethyl-4-isoxazolyl)-6-methoxy-9-(1-phenylethyl)-9H-carbazole-4-carboxamide] | < 50 nM
CNC(=O)c1cc(-c2c(C)noc2C)cc2c1c1cc(C(=O)N3CC(F)C3)ccc1n2Cc1ccc(F)cc1 [Example 103] | < 50 nM
Cc1noc(C)c1-c1cc(C(N)=O)c2c3ccc(C(=O)c4cccc(F)c4)cc3n(Cc3ccccc3)c2c1 [Example 190, 9-Benzyl-2-(3,5-dimethyl-4-isoxazolyl)-7-(3-fluorobenzoyl)-9H-carbazole-4-carboxamide] | < 500 nM
Cc1noc(C)c1-c1cc(C(N)=O)c2c3ccc(C(C)(C)O)cc3n(C(c3ccccc3)C3(F)CCC3)c2c1 (single isomer, unassigned) [Example 222, 2-(Dimethyl-1,2-oxazol-4-yl)-9-[(1-fluorocyclobutyl)(phenyl)methyl]-7-(2-hydroxypropan-2-yl)-9H-carbazole-4-carboxamide] | < 50 nM
CCNC(=O)c1cc(-c2c(C)noc2C)cc2c1c1cc(N3CCCOC3=O)ccc1n2Cc1ccc(F)cc1 [Example 155, 2-(3,5-dimethyl-4-isoxazolyl)-N-ethyl-9-(4-fluorobenzyl)-6-(2-oxo-1,3-oxazinan-3-yl)-9H-carbazole-4-carboxamide] | < 7500 nM
Cc1noc(C)c1-c1cc(C#N)c2c3ccc(C(=O)N4CCOCC4)cc3n(Cc3ccccc3)c2c1 [Example 187, 9-Benzyl-2-(3,5-dimethyl-4-isoxazolyl)-7-(morpholine-4-carbonyl)-9H-carbazole-4-carbonitrile] | < 500 nM
Cc1noc(C)c1-c1ccc2c3cc(C(=O)N4C[C@@H](C)O[C@@H](C)C4)ccc3n(S(C)(=O)=O)c2c1 [Example 23, 2-(3,5-dimethyl-4-isoxazolyl)-6-((cis-2,6-dimethyl-4-morpholinyl)carbonyl)-9-(methylsulfonyl)-9H-carbazole] | < 7500 nM
Cc1noc(C)c1-c1cc(C(N)=O)c2c3cc(NC(=O)N(C)C)ccc3n(Cc3ccccc3)c2c1 [Example 147, 9-benzyl-6-((dimethylcarbamoyl)amino)-2-(3,5-dimethyl-4-isoxazolyl)-9H-carbazole-4-carboxamide] | < 50 nM
Cc1noc(C)c1-c1cc(C(N)=O)c2c3cc(C(=O)N4CCC4C)ccc3n(Cc3ccccc3)c2c1 (stereo not drawn) [Example 54] | < 50 nM
Cc1noc(C)c1-c1cc(C#N)c2c3ccc(C(C)(C)O)cc3n(Cc3ccccc3)c2c1 [Example 184, 9-benzyl-2-(3,5-dimethyl-4-isoxazolyl)-7-(1-hydroxy-1-methylethyl)-9H-carbazole-4-carbonitrile] | < 500 nM
Cc1noc(C)c1-c1ccc2c3cc(C(=O)N4CC(C)OC(C)C4)ccc3n(Cc3cccc(F)c3)c2c1 (stereo not drawn) [Example 17] | < 500 nM
Cc1noc(C)c1-c1cc(C(N)=O)c2c3cc(N4CC(C)(C)COC4=O)ccc3n(Cc3ccc(F)cc3)c2c1 [Example 153, 2-(3,5-dimethyl-4-isoxazolyl)-6-(5,5-dimethyl-2-oxo-1,3-oxazinan-3-yl)-9-(4-fluorobenzyl)-9H-carbazole-4-carboxamide] | < 50 nM
Cc1noc(C)c1-c1cc(C(N)=O)c2c3cc(N4CCOC4=O)ccc3n(Cc3ccc(Cl)cc3)c2c1 [Example 162, 9-(4-chlorobenzyl)-2-(3,5-dimethyl-4-isoxazolyl)-6-(2-oxo-1,3-oxazolidin-3-yl)-9H-carbazole-4-carboxamide] | < 50 nM
CNC(=O)c1cc(-c2c(C)noc2C)cc2c1c1cc(N3CCCOC3=O)ccc1n2Cc1ccc(Cl)c(F)c1 [Example 172, 9-(4-chloro-3-fluorobenzyl)-2-(3,5-dimethyl-4-isoxazolyl)-N-methyl-6-(2-oxo-1,3-oxazinan-3-yl)-9H-carbazole-4-carboxamide] | < 50 nM
Cc1noc(C)c1-c1cc(C(N)=O)c2c3cc(C(=O)N4CCC(F)C4)ccc3n(Cc3cccc(F)c3)c2c1 (stereo not drawn) [Example 81] | < 50 nM
CNC(=O)c1cc(-c2c(C)noc2C)cc2c1c1cc(N(C)C)ccc1n2Cc1ccccc1 [Example 141, 9-benzyl-6-(dimethylamino)-2-(3,5-dimethyl-4-isoxazolyl)-N-methyl-9H-carbazole-4-carboxamide] | < 50 nM
CCC1CCN(C(=O)c2ccc3c(c2)c2c(C(N)=O)cc(-c4c(C)noc4C)cc2n3Cc2ccccc2)CC1 [Example 50] | < 50 nM
Cc1csc(Cn2c3ccc(C(=O)N4CCC(F)C4)cc3c3c(C(N)=O)cc(-c4c(C)noc4C)cc32)n1 (stereo not drawn) [Example 83] | < 50 nM
CNC(=O)c1cc(-c2c(C)noc2C)cc2c1c1cc(C(=O)N3CC(F)(F)C3)ccc1n2C(C)c1ccccc1 (stereo not drawn) [Example 119, 6-((3,3-difluoro-1-azetidinyl)carbonyl)-2-(3,5-dimethyl-4-isoxazolyl)-N-methyl-9-(1-phenylethyl)-9H-carbazole-4-carboxamide] | < 50 nM
